# Data from publication PMC4979471 (Cell Death Discovery, 2015).
# Where two headings read alike, the source gives them in different places.
# Columns and labels:
# Experiment in all cases: Kinase selectivity, P33-radiolabeled assay
# Type in all cases: biochemical
# Conditions in all cases: 10 μM ATP
# PKG1a = target: T1, PKG1a (Homo sapiens, UniProt Q13976)
# T1 construct: purchased Reaction Biology Corp
# T1 sequence (Q13976 1-671): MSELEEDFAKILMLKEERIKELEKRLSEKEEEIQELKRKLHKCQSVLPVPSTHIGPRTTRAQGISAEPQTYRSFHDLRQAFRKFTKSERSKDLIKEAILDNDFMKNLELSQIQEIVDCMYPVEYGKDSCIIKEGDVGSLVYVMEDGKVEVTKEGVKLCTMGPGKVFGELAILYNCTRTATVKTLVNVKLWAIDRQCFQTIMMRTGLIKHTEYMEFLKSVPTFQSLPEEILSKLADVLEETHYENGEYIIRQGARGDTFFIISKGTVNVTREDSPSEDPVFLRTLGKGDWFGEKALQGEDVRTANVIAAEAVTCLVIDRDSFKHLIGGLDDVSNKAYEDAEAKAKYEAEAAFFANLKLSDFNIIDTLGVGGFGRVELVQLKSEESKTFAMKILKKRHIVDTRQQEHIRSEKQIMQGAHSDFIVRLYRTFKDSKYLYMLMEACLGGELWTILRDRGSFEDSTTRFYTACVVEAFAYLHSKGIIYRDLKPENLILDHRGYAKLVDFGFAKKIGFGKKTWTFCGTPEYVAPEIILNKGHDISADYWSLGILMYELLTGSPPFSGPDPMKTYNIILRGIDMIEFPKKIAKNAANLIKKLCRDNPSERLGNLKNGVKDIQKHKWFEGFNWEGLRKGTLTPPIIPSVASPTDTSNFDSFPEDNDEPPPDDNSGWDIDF
# In short: (§1)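 Values show % enzyme activity normalised to DMSO vehicle. They come from one 10 μM compound concentration run twice, at an ATP level of 10 μM.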
# CAMK1a = target: T2, CAMK1a (Homo sapiens, UniProt Q14012)
# T2 construct: purchased Reaction Biology Corp
# T2 sequence (Q14012 whole entry): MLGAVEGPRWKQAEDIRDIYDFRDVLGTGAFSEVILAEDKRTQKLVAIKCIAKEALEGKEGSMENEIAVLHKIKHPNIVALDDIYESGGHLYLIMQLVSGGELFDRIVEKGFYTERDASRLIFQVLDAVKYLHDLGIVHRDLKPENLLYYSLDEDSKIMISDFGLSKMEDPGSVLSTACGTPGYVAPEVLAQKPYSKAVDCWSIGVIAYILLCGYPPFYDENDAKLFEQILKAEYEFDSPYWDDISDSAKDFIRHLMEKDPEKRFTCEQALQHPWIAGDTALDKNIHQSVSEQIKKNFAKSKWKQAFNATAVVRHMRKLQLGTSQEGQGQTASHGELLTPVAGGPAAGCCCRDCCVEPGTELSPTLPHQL
# In short: as §1
# CAMK2g = target: T3, CAMK2g (Homo sapiens, UniProt Q13555)
# T3 construct: purchased Reaction Biology Corp
# T3 sequence (Q13555 whole entry): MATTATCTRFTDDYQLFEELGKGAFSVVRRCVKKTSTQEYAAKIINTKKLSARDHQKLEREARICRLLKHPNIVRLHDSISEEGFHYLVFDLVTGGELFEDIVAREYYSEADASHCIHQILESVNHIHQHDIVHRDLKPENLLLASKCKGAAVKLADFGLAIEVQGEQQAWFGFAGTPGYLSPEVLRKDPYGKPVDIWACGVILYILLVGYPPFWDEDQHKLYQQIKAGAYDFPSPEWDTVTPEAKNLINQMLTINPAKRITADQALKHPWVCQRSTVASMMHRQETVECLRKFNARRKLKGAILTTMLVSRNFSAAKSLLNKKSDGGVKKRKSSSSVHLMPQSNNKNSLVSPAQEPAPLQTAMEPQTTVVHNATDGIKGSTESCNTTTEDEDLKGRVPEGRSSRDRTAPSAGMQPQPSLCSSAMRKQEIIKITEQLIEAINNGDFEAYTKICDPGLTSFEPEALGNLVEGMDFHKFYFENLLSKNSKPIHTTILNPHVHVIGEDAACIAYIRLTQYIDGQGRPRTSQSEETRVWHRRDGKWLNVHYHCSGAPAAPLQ
# In short: as §1
# CAMKK1 = target: T4, CAMKK1 (Homo sapiens, UniProt Q8N5S9)
# T4 construct: purchased Reaction Biology Corp
# T4 sequence (Q8N5S9 whole entry): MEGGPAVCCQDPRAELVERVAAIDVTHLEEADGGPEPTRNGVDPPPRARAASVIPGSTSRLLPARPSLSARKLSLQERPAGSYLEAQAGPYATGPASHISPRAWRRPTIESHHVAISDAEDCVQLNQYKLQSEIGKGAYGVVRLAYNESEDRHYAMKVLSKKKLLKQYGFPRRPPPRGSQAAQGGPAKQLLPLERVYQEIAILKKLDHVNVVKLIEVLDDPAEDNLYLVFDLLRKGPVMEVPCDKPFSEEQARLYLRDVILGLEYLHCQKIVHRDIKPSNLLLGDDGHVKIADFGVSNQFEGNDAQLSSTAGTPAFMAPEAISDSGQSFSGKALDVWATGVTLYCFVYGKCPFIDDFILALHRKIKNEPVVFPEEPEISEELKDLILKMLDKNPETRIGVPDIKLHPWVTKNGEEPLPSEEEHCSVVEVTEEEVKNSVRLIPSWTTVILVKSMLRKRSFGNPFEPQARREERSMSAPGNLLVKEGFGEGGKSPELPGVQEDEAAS
# In short: as §1
# TAOK1 = target: T5, TAOK1 (Homo sapiens, UniProt Q7L7X3)
# T5 construct: purchased Reaction Biology Corp
# T5 sequence (Q7L7X3 1-1001): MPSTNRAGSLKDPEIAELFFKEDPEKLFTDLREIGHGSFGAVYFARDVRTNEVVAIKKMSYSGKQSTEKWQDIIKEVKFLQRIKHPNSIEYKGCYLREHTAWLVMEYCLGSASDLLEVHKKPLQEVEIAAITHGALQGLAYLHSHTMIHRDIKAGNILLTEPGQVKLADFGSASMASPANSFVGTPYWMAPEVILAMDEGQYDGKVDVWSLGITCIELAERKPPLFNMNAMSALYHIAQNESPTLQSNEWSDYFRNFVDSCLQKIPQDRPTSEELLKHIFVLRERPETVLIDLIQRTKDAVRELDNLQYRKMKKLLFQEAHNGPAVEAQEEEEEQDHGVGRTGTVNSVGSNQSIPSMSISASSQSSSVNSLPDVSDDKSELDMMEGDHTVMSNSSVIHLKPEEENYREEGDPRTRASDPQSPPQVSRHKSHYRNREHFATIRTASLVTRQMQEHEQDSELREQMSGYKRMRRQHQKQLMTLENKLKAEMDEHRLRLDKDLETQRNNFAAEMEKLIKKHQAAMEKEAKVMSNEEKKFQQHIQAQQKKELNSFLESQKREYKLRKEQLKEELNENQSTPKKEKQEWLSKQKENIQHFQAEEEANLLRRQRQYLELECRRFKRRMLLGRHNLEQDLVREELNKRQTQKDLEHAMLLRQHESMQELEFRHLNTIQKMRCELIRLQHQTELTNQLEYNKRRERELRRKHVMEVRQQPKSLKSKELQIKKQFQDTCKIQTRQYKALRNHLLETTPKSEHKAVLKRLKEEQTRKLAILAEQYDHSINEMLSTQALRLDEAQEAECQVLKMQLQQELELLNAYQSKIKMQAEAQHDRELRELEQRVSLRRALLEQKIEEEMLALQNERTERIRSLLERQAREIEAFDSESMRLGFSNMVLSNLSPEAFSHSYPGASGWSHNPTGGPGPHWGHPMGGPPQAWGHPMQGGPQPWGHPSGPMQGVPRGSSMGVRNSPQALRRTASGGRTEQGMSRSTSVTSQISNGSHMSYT
# In short: as §1
# RSK4 = target: T6, RSK4 (Homo sapiens, UniProt Q9UK32)
# T6 construct: purchased Reaction Biology Corp
# T6 sequence (Q9UK32 whole entry): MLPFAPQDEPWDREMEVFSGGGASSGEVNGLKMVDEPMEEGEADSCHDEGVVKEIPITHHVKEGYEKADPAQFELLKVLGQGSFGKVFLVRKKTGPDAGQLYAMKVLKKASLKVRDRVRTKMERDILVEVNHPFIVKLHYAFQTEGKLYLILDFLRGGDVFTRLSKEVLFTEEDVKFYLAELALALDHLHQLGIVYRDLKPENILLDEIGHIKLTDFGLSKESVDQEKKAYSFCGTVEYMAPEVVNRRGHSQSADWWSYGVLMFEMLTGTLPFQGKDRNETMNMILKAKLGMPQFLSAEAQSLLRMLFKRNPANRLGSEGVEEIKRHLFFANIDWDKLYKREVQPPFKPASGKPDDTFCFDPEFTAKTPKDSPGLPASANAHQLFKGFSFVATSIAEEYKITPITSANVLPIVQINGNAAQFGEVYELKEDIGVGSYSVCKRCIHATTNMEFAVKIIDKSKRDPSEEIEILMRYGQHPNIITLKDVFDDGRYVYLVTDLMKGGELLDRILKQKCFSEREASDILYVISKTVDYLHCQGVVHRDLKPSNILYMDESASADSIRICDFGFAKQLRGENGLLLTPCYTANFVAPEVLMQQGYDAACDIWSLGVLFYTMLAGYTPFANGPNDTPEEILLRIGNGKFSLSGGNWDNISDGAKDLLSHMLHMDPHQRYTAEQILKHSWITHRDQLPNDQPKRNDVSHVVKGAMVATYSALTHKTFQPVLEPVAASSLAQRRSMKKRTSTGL
# In short: as §1
# RON/MST1R = target: T7, RON/MST1R (Homo sapiens, UniProt Q04912)
# T7 construct: purchased Reaction Biology Corp
# T7 sequence (Q04912 25-1400): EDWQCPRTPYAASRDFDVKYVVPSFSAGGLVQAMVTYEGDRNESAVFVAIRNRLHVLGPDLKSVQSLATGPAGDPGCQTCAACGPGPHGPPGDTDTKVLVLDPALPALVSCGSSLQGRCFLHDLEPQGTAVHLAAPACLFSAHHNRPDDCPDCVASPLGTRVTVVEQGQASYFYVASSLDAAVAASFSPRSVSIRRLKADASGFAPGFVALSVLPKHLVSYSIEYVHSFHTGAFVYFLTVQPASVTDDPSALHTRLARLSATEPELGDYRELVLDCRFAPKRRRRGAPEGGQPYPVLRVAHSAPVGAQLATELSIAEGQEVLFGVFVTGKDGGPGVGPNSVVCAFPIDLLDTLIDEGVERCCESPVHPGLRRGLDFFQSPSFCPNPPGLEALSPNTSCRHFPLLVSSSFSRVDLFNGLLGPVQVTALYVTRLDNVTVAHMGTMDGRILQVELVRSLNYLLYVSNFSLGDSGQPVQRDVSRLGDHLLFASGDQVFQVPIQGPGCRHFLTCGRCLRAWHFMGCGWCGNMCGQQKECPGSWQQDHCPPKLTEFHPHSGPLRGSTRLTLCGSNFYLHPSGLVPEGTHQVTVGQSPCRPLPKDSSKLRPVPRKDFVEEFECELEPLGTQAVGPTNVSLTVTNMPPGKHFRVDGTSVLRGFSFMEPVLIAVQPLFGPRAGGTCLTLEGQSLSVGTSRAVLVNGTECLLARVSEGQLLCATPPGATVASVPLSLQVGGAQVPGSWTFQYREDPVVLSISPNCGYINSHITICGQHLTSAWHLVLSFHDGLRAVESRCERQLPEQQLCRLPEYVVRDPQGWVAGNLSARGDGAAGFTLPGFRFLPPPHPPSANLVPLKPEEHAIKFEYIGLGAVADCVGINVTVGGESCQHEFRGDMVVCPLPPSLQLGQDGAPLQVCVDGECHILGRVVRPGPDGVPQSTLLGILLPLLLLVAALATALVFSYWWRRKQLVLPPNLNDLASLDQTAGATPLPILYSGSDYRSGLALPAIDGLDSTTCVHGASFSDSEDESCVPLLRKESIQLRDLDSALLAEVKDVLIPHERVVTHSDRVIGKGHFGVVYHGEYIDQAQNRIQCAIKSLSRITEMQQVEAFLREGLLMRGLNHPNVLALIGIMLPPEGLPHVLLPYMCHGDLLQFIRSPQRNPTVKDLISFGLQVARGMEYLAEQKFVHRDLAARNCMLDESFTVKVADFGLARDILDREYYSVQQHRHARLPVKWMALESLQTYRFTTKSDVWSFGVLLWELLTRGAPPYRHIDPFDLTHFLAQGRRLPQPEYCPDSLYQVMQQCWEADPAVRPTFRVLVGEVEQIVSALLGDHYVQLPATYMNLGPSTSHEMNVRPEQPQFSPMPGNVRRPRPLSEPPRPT
# In short: as §1
# CAMK1g = target: T8, CAMK1g (Homo sapiens, UniProt Q96NX5)
# T8 construct: purchased Reaction Biology Corp
# T8 sequence (Q96NX5 whole entry): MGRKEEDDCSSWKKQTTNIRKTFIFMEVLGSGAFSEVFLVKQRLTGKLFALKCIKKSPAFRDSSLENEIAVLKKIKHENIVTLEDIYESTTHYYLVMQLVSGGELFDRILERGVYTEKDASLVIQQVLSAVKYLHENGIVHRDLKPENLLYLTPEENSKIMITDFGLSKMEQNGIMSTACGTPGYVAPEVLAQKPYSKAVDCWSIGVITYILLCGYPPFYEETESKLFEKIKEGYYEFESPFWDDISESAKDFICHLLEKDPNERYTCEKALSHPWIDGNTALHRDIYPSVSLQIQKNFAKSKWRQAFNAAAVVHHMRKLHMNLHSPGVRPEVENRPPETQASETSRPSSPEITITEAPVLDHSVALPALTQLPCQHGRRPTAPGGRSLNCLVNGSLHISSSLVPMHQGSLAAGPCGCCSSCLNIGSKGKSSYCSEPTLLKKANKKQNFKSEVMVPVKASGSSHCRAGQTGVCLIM
# In short: as §1
# [1] = read-out: % Enzyme Activity (relative to DMSO controls) AVG
# [2] = read-out: % Enzyme Activity (relative to DMSO controls) Data 1
# [3] = read-out: % Enzyme Activity (relative to DMSO controls) Data 2
compound,measurement,setting,value
CC(C)(C)C(=O)N1N=CC[C@H]1c1ccccc1 [GSK′963],remaining activity at 10 µM,PKG1a; [1],90%
same,remaining activity at 10 µM,PKG1a; [2],92.4%
same,remaining activity at 10 µM,PKG1a; [3],87.7%
same,remaining activity at 10 µM,CAMK1a; [1],96.3%
same,remaining activity at 10 µM,CAMK1a; [2],99.3%
same,remaining activity at 10 µM,CAMK1a; [3],93.3%
same,remaining activity at 10 µM,CAMK2g; [1],115%
same,remaining activity at 10 µM,CAMK2g; [2],112%
same,remaining activity at 10 µM,CAMK2g; [3],118%
same,remaining activity at 10 µM,CAMKK1; [1],103%
same,remaining activity at 10 µM,CAMKK1; [2],105%
same,remaining activity at 10 µM,CAMKK1; [3],101%
same,remaining activity at 10 µM,TAOK1; [1],99.3%
same,remaining activity at 10 µM,TAOK1; [2],101%
same,remaining activity at 10 µM,TAOK1; [3],97.8%
same,remaining activity at 10 µM,RSK4; [1],116%
same,remaining activity at 10 µM,RSK4; [2],116%
same,remaining activity at 10 µM,RSK4; [3],116%
same,remaining activity at 10 µM,RON/MST1R; [1],104%
same,remaining activity at 10 µM,RON/MST1R; [2],106%
same,remaining activity at 10 µM,RON/MST1R; [3],102%
same,remaining activity at 10 µM,CAMK1g; [1],82.4%
same,remaining activity at 10 µM,CAMK1g; [2],81.8%
same,remaining activity at 10 µM,CAMK1g; [3],83%
